Results published in PMC6354011 (Scientific Reports, 2019).
Where “and” joins values, the source holds several entries; their conditions need not be identical. Identical values can stand only once. Like-named read-outs stand apart in the source and are kept apart here.

How the values were obtained:
[1] = biological target: T1, equine serum butyrylcholinesterase (BChE, EC 3.1.1.8) (Equus caballus, UniProt P81908); assay: biochemical; assay type: biochemical; conditions: for BChE % inhibition: single read
T1 construct: equine serum butyrylcholinesterase (BChE, EC 3.1.1.8); purchased Sigma-Aldrich (USA); host or cells: equine serum
T1 sequence (P81908 whole entry): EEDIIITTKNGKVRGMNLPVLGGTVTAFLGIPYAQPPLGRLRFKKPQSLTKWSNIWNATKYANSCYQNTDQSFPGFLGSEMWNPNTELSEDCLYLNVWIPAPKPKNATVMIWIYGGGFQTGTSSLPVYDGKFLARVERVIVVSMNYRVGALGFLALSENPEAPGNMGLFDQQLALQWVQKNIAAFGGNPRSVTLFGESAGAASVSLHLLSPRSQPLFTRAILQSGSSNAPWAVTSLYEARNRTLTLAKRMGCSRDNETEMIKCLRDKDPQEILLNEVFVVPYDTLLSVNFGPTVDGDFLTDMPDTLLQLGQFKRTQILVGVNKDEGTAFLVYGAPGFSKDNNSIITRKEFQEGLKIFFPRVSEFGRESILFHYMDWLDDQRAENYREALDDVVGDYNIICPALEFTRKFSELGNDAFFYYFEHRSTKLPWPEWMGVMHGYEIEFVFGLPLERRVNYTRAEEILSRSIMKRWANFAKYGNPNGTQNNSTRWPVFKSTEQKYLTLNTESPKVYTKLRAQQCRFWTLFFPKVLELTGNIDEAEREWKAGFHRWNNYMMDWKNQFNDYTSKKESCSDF
Description: (§1) Ellman’s colorimetric method with minor modification was employed in the determination of AChE and BChE inhibitory activities. Electric eel acetylcholinesterase (AChE, EC 3.1.1.7), equine serum butyrylcholinesterase (BChE, EC 3.1.1.8), 5,5′-Dithiobis(2-nitrobenzoic acid) (DTNB) and sodium phosphate dibasic (Na2HPO4) were purchased from Sigma-Aldrich (USA). S-butyrylthiocholine chloride (BTCC) from Sigma-Aldrich (Switzerland), acetylthiocholine iodide (ATCI) from Sigma-Aldrich (United Kingdom) and sodium phosphate monobasic (NaH2PO4) from Sigma-Aldrich (Germany) were purchased. […] Ethanol was used to replace the sample as a control in this assay.

[2] = biological target: T2, Electric eel acetylcholinesterase (AChE, EC 3.1.1.7) (Electrophorus electricus, UniProt O42275); assay: biochemical
T2 construct: purchased Sigma-Aldrich (USA)
T2 sequence (O42275 24-633): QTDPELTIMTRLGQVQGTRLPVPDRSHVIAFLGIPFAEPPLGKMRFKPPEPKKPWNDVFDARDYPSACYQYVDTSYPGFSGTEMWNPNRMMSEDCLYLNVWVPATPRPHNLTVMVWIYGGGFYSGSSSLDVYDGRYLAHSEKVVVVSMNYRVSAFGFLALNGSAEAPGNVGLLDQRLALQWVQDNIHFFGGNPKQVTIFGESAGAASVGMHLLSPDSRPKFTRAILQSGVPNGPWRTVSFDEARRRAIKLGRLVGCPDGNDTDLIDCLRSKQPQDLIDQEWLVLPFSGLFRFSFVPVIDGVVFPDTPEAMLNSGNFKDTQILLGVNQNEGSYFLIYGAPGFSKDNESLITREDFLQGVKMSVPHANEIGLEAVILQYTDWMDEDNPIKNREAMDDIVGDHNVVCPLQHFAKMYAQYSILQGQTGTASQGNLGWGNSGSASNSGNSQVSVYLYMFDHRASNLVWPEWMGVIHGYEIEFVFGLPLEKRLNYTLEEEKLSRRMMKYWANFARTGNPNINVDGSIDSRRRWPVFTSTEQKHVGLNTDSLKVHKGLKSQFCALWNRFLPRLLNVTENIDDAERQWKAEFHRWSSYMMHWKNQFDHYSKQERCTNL
Description: as §1

[3] = mean ± SD, n = 3, read-out: IC50 (µM) BChE
[4] = mean ± SD, n = 3, read-out: IC50 (µM) AChE
[5] = N = 3, unit not given (µg/mL scale), read-out: BChE IC50, Tukey HSD homogeneous subsets (group mean) (converted)
[6] = average of three reads, read-out: BChE IC50 (µM) Average
[7] = average of three reads, read-out: BChE IC50 (µg/mL) Average (converted)
[8] = first read, read-out: BChE IC50 (µM) First read
[9] = first read, read-out: BChE IC50 (µg/mL) First read (converted)
[10] = second read, read-out: BChE IC50 (µM) Second read
[11] = second read, read-out: BChE IC50 (µg/mL) Second read (converted)
[12] = third read, read-out: BChE IC50 (µM) Third read
[13] = third read, read-out: BChE IC50 (µg/mL) Third read (converted)
[14] = average of three reads, read-out: AChE IC50 (µM) Average
[15] = average of three reads, read-out: AChE IC50 (µg/mL) Average (converted)
[16] = first read, read-out: AChE IC50 (µM) First read
[17] = second read, read-out: AChE IC50 (µM) Second read
[18] = third read, read-out: AChE IC50 (µM) Third read

`Clc1ccn2cc(C34CC5CC(CC(C5)C3)C4)nc2c1` [Compound 2e, 2-(adamantan-1-yl)-7-chloroimidazo[1,2-a]pyridine hydrate] showed an IC50 [1, 3] of over 2000 µM and an IC50 [2, 4] of over 2000 µM.

Work on `COc1ccc(-c2cn3ccccc3n2)cc1` [Compound 2l, 2-(4-methoxyphenyl)imidazo[1,2-a]pyridine] yielded an IC50 [1, 3] of over 2000 µM and an IC50 [2, 4] of over 2000 µM.

With `c1ccn2cc(C34CC5CC(CC(C5)C3)C4)nc2c1` [Compound 2a, 2-(adamantan-1-yl)imidazo[1,2-a]pyridine] the IC50 [1, 3] was over 2000 µM and the IC50 [2, 4] was over 2000 µM.

In the case of `Clc1ccc(-c2cn3ccccc3n2)cc1Cl` [Compound 2j, 2-(3,4-dichlorophenyl)imidazo[1,2-a]pyridine], the IC50 [1, 5] is reported as 75.6 µM, the BChE % inhibition ([1]; conc 12.5 (µg/mL)) is reported as 27.75% and 48.55% and 34.78% and the BChE % inhibition ([1]; conc 25 (µg/mL)) is reported as 50.87% and 55.49% and 62.14%. For the same molecule, the BChE % inhibition ([1]; conc 50 (µg/mL)) was 63.01% and 66.76% and 69.65%, the BChE % inhibition ([1]; conc 100 (µg/mL)) was 91.04% and 87.86% and 90.17% and the IC50 [2, 4] was over 2000 µM.

`Cc1cccn2cc(C34CC5CC(CC(C5)C3)C4)nc12.O` [Compound 2b, 2-(adamantan-1-yl)-8-methylimidazo[1,2-a]pyridine hydrate] gave an IC50 [1, 5] of 663 µM, an IC50 [1, 6] of 706 µM and an IC50 [1, 7] of 660 µM. The BChE % inhibition ([1]; conc 50 (µg/mL)) was 21.17% and 17.3469% and 18.49%, the BChE % inhibition ([1]; conc 100 (µg/mL)) was 28.06% and 27.68% and 30.36% and the BChE % inhibition ([1]; conc 200 (µg/mL)) was 49.87% and 45.66% and 43.75%. For the same molecule, the BChE % inhibition ([1]; conc 300 (µg/mL)) was 64.41% and 61.35% and 67.86%, the BChE % inhibition ([1]; conc 400 (µg/mL)) was 72.45% and 75.51% and the BChE % inhibition ([1]; conc 500 (µg/mL)) was 80.48% and 74.74% and 73.60%. For the same molecule, the BChE % inhibition ([1]; conc 600 (µg/mL)) was 81.63% and 77.81%, the BChE % inhibition ([1]; conc 700 (µg/mL)) was 82.40% and 85.08% and 88.14% and the IC50 [1, 8] was 681 µM. It also gave an IC50 [1, 9] of 637 µM, an IC50 [1, 3] of 706 ± 37 µM and an IC50 [1, 10] of 748 µM. It also gave an IC50 [1, 11] of 700 µM, an IC50 [1, 12] of 689 µM and an IC50 [1, 13] of 644 µM. The IC50 ([2]; N = 3, unit not printed (µg/mL scale), read-out: AChE IC50, Tukey HSD homogeneous subsets (group mean) (converted)) was 614 µM, the IC50 [2, 14] was 657 µM and the IC50 [2, 15] was 614 µM. The AChE % inhibition ([2]; conc 50 (µg/mL), single read) was 23.63% and 19.6906% and 32.91%, the AChE % inhibition ([2]; conc 100 (µg/mL), single read) was 27.71% and 37.97% and 34.60% and the AChE % inhibition ([2]; conc 150 (µg/mL), single read) was 38.54% and 49.65% and 47.82%. The AChE % inhibition ([2]; conc 200 (µg/mL), single read) was 52.60% and 54.71% and 61.74%, the AChE % inhibition ([2]; conc 250 (µg/mL), single read) was 60.34% and 65.68% and 64.70% and the AChE % inhibition ([2]; conc 300 (µg/mL), single read) was 75.67% and 76.23% and 73.56%. For the same molecule, the IC50 [2, 16] was 721 µM, the IC50 [2, 4] was 657 ± 60 µM and the IC50 [2, 17] was 646 µM. The IC50 ([2]; single read, unit not printed at place (µg/mL), read-out: AChE IC50 from regression on raw-data page (converted)) was 674 µM and 605 µM and 564 µM and the IC50 [2, 18] was 603 µM.

Molecule `Cc1cccn2cc(-c3ccc(-c4ccccc4)cc3)nc12` [Compound 2g, 2-([1,1′-biphenyl]-4-yl)-8-methylimidazo[1,2-a]pyridine] has an IC50 [1, 5] of 315 µM, an IC50 [1, 6] of 315 µM and an IC50 [1, 7] of 315 µM. The BChE % inhibition ([1]; conc 60 (µg/mL)) was 7.74% and 0.19% and 6.00%, the BChE % inhibition ([1]; conc 80 (µg/mL)) was 35.59% and 45.45% and 37.33% and the BChE % inhibition ([1]; conc 90 (µg/mL)) was 48.36% and 35.01% and 51.84%. The BChE % inhibition ([1]; conc 100 (µg/mL)) was 61.12% and 73.89% and 66.92%, the BChE % inhibition ([1]; conc 110 (µg/mL)) was 84.33% and 65.76% and 66.92% and the BChE % inhibition ([1]; conc 120 (µg/mL)) was 106.96% and 76.79% and 121.47%. It also gave an IC50 [1, 8] of 311 µM, an IC50 [1, 9] of 310 µM and an IC50 [1, 3] of 315 ± 6 µM. For the same molecule, the IC50 [1, 10] was 322 µM, the IC50 [1, 11] was 322 µM and the IC50 [1, 12] was 312 µM. For the same molecule, the IC50 [1, 13] was 311 µM, the IC50 [2, 14] was 288 µM and the IC50 [2, 15] was 288 µM. For the same molecule, the AChE % inhibition ([2]; conc 100 (µg/mL), single read) was 66.67% and 62.62% and 65.90%, the AChE % inhibition ([2]; conc 150 (µg/mL), single read) was 81.50% and 87.67% and 85.81% and the AChE % inhibition ([2]; conc 200 (µg/mL), single read) was 83.04% and 90.94% and 100.39%. The AChE % inhibition ([2]; conc 250 (µg/mL), single read) was 106.74% and 92.10% and 107.32%, the AChE % inhibition ([2]; conc 300 (µg/mL), single read) was 140.85% and 130.64% and 128.52% and the IC50 [2, 16] was 343 µM. For the same molecule, the IC50 ([2]; first read, read-out: AChE IC50 (µg/mL) First read (converted)) was 343 µM, the IC50 [2, 4] was 288 ± 48 µM and the IC50 [2, 17] was 264 µM. It also gave an IC50 ([2]; second read, read-out: AChE IC50 (µg/mL) Second read (converted)) of 263 µM, an IC50 [2, 18] of 258 µM and an IC50 ([2]; third read, read-out: AChE IC50 (µg/mL) Third read (converted)) of 258 µM.
